Measurements reported in patent US10703733B2, “MCL-1 inhibitors” (Gilead Sciences, Inc., priority 2018, dated 2020).

Legend:
[1] = target: MCL-1/Bim interaction (recombinant human MCL-1 protein, residues 171-327; biotinylated human Bim peptide, residues 51-76) (Homo sapiens (Human), UniProt Q07820); test: MCL-1/Bim Binding AlphaLISA Assay; conditions: 0.0625 nM 6xHis-Mcl-1 (171-327), 0.0625 nM biotinylated-Bim peptide
Method in brief: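 Protein 0.0625 nM + cpd, 1 h; add biotin-Bim 0.0625 nM, 2 h; acceptor beads 1 h; donor beads 1 h; AlphaScreen read. Buffer 20 mM Hepes pH 7.5, 150 mM NaCl, 1 mM DTT.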

[2] = system: SKBR3 cells; test: SKBR3 Cell Viability Assay (CellTiter Glo); format: cell-based; conditions: Homo sapiens, SK-BR-3, 72 h, CellTiter Glo luminescence, read-out: MCL-1 CV SKBR3 EC50
Method in brief: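 Viability read as CellTiter Glo luminescence after 72 h of compound exposure at 37° C./5% CO2, using 6,000 SKBR3 cells per well in McCoy 5A with 10% FBS. Percent inhibition scaled between DMSO wells and 10 μM puromycin wells.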

MCL-1/Bim interaction (recombinant human MCL-1 protein, residues 171-327; biotinylated human Bim peptide, residues 51-76), sequence (Q07820 171-327): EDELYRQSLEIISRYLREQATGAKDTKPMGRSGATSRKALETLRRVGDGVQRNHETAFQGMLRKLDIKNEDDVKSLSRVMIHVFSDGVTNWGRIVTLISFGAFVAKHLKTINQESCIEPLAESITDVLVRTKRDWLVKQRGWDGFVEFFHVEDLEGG

Structure (SMILES) | IC50 [1] | EC50 [2]
CO[C@H]1/C=C/C[C@H](C)C[S@@](=O)(NC(=O)c2cn(C)nc2OCC2CC2)=NC(=O)c2ccc3c(c2)N(C[C@@H]2CC[C@H]21)C[C@@]1(CCCc2cc(Cl)ccc21)CO3 [Example 221] | 0.046 nM | 104 nM
C[C@H]1C/C=C/[C@H](O)[C@@H]2CC[C@H]2CN2C[C@@]3(CCCc4cc(Cl)ccc43)COc3ccc(cc32)C(=O)N=[S@](=O)(NC(=O)N[C@H]2C[C@@H]2C(F)F)C1 [Example 321] | 0.037 nM | 47.1 nM
CO[C@H]1/C=C/C[C@H](C)C[S@@](=O)(NC(=O)c2cc(CN3CCN4CCOC[C@@H]4C3)n(C)c2)=NC(=O)c2ccc3c(c2)N(C[C@@H]2CC[C@H]21)C[C@@]1(CCCc2cc(Cl)ccc21)CO3 [Example 238] | 0.033 nM | 23.4 nM
CO[C@H]1/C=C/C[C@H](C)C[S@@](=O)(NC(=O)N2CC(C(C)(C)OC)C2)=NC(=O)c2ccc3c(c2)N(C[C@@H]2CC[C@H]21)C[C@@]1(CCCc2cc(Cl)ccc21)CO3 [Example 265] | 0.046 nM | 96.2 nM
CO[C@H]1/C=C/C[C@H](C)[C@@H](C)[S@@](=O)(NC(=O)c2cnn(C)c2)=NC(=O)c2ccc3c(c2)N(C[C@@H]2CC[C@H]21)C[C@@]1(CCCc2cc(Cl)ccc21)CO3 [Example 138] | 0.112 nM | 60.5 nM
CO[C@H]1/C=C/CCC[S@@](=O)(NC(=O)NC(C)(C)C(F)(F)F)=NC(=O)c2ccc3c(c2)N(C[C@@H]2CC[C@H]21)C[C@@]1(CCCc2cc(Cl)ccc21)CO3 [Example 34] | 2 nM | 3350 nM
CO[C@H]1/C=C/CCC[S@@](=O)(NC(=O)Cc2ccnn2C)=NC(=O)c2ccc3c(c2)N(C[C@@H]2CC[C@H]21)C[C@@]1(CCCc2cc(Cl)ccc21)CO3 [Example 29] | 0.6 nM | 1840 nM
CO[C@H]1/C=C/C[C@H](C)C[S@@](=O)(NC(=O)N[C@@H]2C[C@H]2C2CCOCC2)=NC(=O)c2ccc3c(c2)N(C[C@@H]2CC[C@H]21)C[C@@]1(CCCc2cc(Cl)ccc21)CO3 [Example 181] | 0.146 nM | 37.9 nM
COCC1(O)CN(C(=O)N[S@@]2(=O)=NC(=O)c3ccc4c(c3)N(C[C@@H]3CC[C@H]3[C@@H](OC)/C=C/C[C@H](C)C2)C[C@@]2(CCCc3cc(Cl)ccc32)CO4)C1 [Example 268] | 0.058 nM | 88.8 nM
CO[C@H]1/C=C/C[C@H](C)C[S@@](=O)(NC(=O)NC2CC2)=NC(=O)c2ccc3c(c2)N(C[C@@H]2CC[C@H]21)C[C@@]1(CCCc2cc(Cl)ccc21)CO3 [Example 144] | 0.05 nM | 50.8 nM
CO[C@H]1/C=C/CCC[S@@](=O)(NC(=O)CC(F)(F)F)=NC(=O)c2ccc3c(c2)N(C[C@@H]2CC[C@H]21)C[C@@]1(CCCc2cc(Cl)ccc21)CO3 [Example 23] | 0.8 nM | 1450 nM
CO[C@H]1/C=C/C[C@H](C)C[S@@](=O)(NC(=O)N[C@H]2C[C@](C)(OC)C2)=NC(=O)c2ccc3c(c2)N(C[C@@H]2CC[C@H]21)C[C@@]1(CCCc2cc(Cl)ccc21)CO3 [Example 192] | 0.054 nM | 39.7 nM
COc1nn(C)cc1C(=O)N[S@@]1(=O)=NC(=O)c2ccc3c(c2)N(C[C@@H]2CC[C@H]2[C@@H](OC)CCC[C@H](C)C1)C[C@@]1(CCCc2cc(Cl)ccc21)CO3 [Example 240] | 0.018 nM | 91.5 nM
CO[C@H]1/C=C/CCC[S@@](=O)(NC(=O)OCc2ccnn2C)=NC(=O)c2ccc3c(c2)N(C[C@@H]2CC[C@H]21)C[C@@]1(CCCc2cc(Cl)ccc21)CO3 [Example 78] | 0.8 nM | 4070 nM

The next lines start with the values.

IC50 [1] | EC50 [2] | Structure (SMILES)
0.129 nM | 261 nM | CO[C@H]1/C=C/C[C@H](C)C[S@@](=O)(NC(=O)c2cc3c(s2)CCOC3)=NC(=O)c2ccc3c(c2)N(C[C@@H]2CC[C@H]21)C[C@@]1(CCCc2cc(Cl)ccc21)CO3 [Example 429]
0.046 nM | 22.4 nM | COC1CN(C(=O)N[S@@]2(=O)=NC(=O)c3ccc4c(c3)N(C[C@@H]3CC[C@H]3[C@@H](OC)/C=C/[C@H](OC)[C@H](C)C2)C[C@@]2(CCCc3cc(Cl)ccc32)CO4)C1 [Example 375]
0.05 nM | 86.4 nM | COCCn1cc(C(=O)N[S@@]2(=O)=NC(=O)c3ccc4c(c3)N(C[C@@H]3CC[C@H]3[C@@H](OC)/C=C/C[C@H](C)C2)C[C@@]2(CCCc3cc(Cl)ccc32)CO4)cc1COC [Example 337]
0.052 nM | 139 nM | CO[C@H]1/C=C/C[C@H](C)C[S@@](=O)(NC(=O)N[C@H]2C[C@H](OC(=O)N(C)C)C2)=NC(=O)c2ccc3c(c2)N(C[C@@H]2CC[C@H]21)C[C@@]1(CCCc2cc(Cl)ccc21)CO3 [Example 360]
0.03 nM | 56.4 nM | CO[C@H]1/C=C/C[C@H](C)C[S@@](=O)(NC(=O)N2CCC(OC(F)F)CC2)=NC(=O)c2ccc3c(c2)N(C[C@@H]2CC[C@H]21)C[C@@]1(CCCc2cc(Cl)ccc21)CO3 [Example 330]
0.058 nM | 47.5 nM | COc1nn(C)cc1C(=O)N[S@@]1(=O)=NC(=O)c2ccc3c(c2)N(C[C@@H]2CC[C@H]2[C@@H](OC)/C=C/[C@H](O)[C@H](C)[C@H]1C)C[C@@]1(CCCc2cc(Cl)ccc21)CO3 [Example 374]
0.087 nM | 151 nM | CO[C@H]1/C=C/C[C@H](C)C[S@@](=O)(NC(=O)c2cnc(C)nc2)=NC(=O)c2ccc3c(c2)N(C[C@@H]2CC[C@H]21)C[C@@]1(CCCc2cc(Cl)ccc21)CO3 [Example 461]
